From US20260174677A1, “METHODS OF TREATING INSULIN RESISTANCE AND ASSOCIATED DISORDERS” (The University of Melboune, priority 2022, published 2026)

Tested on: CSPG-ECM components (mixed CSPGs, aggrecan, chondroitin 4-sulfate)
Assay: CSPG-ECM binding assay with insulin-FITC in vitro
Method: To determine the interaction of insulin with CSPG-ECM components in vitro, flat-bottom 96-well plates were first coated with 10 μg/ml poly-L-lysine overnight, followed by a rinsing with water. A purified CSPGs mix containing neurocan, phosphacan, versican and aggrecan (CC117, Merck Millipore, MA), purified aggrecan ([…], Merck Millipore, MA) or purified chondroitin 4-sulfate ([…], Selleck Chemicals, TX), were coated onto the 96-well plates at a concentration of 10 μg/ml for 4 h at RT, followed by a rinse with water. Insulin-FITC was incubated on plates containing ECM at concentrating ranging from 5 ng/ml-1 mg/ml for 2 h at RT and protected from light. Control wells contained either no ECM, bovine serum albumin (10 μg/ml) or poly-L-lysine alone. Wells were washed 3 times with water and imaged at 495 nm using a SPECTROstar Nano Microplate Reader (BMG Labtech, Germany). To digest CSPG-ECM or to negate CSPG-ECM negative charge. wells were incubated with either chABC (0.5 U/ml) or poly-l-arginine (10 μg/ml, […], Merck Millipore, MA) for 1 h at 37° C. after the ECM coating, washed 3 times with water and then incubated with insulin-FITC.

Substance | binding of insulin-FITC to mixed CSPGs, aggrecan and C4S (2-hours incubation on coated plates) | insulin-ECM interactions (insulin-FITC with CSPG mix) in the presence of the agent (in the presence of poly-arginine)
insulin-FITC: fluorescein isothiocyanate tagged insulin | specific dose-dependent binding | –
poly-arginine | – | significantly reduced
